Measured values published in patent publication US20100256145A1, “USE OF KCNQ POTASSIUM CHANNEL OPENERS FOR REDUCING SYMPTOMS OF OR TREATING DISORDERS OR CONDITIONS WHEREIN THE DOPAMINERGIC SYSTEM IS DISRUPTED” (H. LUNDBECK A/S, priority 2007, published 2010).
Marks after values point to notes of the source that are not given here.

Legend:
baseline motility = assay: Baseline motility in mice (vehicle-pretreated, vehicle-challenged); assay type: in vivo, mouse; settings: s.c., Std. Dev. in brackets
Experimental: Subjects. Male NMRI mice (Charles River) weighing approx. 35 g are used. […] 12 mice are used pr experimental group.
Experimental procedure. All mice are pre-treated once daily for five days with either d-amphetamine sulphate (2.5 mg/kg s.c.) or saline (10 ml/kg). For the 17 days between the last day of pre-treatment and the test day, the animals are kept in their homecage receiving the care as described above. The experiment is performed under normal light conditions in an undisturbed room. The mice are treated with test substance or vehicle and placed individually in the test cages for 30 min. The mice are then challenged with D-amphetamine sulphate (1.25 mg/kg s.c.) or saline (5 ml/kg) and replaced in the test-cage and data acquisition is begun. 5×8 infrared light sources and photocells interspaced by 4 cm monitor the locomotor activity. The light beams cross the cage 1.8 cm above the bottom of the cage.
Administration of compounds.
Data analyses. […] Similarly an ED50 for inhibiting baseline motility is calculated by expressed the motility response in vehicle-pretreated, vehicle-challenged, drug-treated animals relative to the baseline motility response. A therapeutic index value is subsequently calculated by dividing the first ED50 by the second.

[1] = system: social behaviours in the Mutual Resident Intruder rat test; assay: Mutual Resident Intruder rat test; settings: for % of time Agonistic behaviour: sum of defensive and aggressive behaviour
Experimental: Subjects. 5 week old male Wistar rats (Harlan, Germany) were used. The animals were housed in groups of four animals per cage and kept under a 12 h/12 h light dark rhythm (start of the dark phase at 2:00 p.m., CET), at 20° C. room temperature and 60% humidity. During the whole study, standard diet and tap water was provided ad libitum.
Experimental procedure. […] Therefore, half of the cage is the home territory of each animal. At test time, the wall is removed from the cage so that the animals can interact with each other for 15 minutes. Both animals are from the same test group. The cage is illuminated by dim red light. The test starts 1 hour after beginning of the dark phase. All animals are marked individually by means of black symbols on their back. Behaviour is registered by video. Each animal is tested once.
Analyses. In both the TE test and the MRI test, the portion of time (%) spent in non-social, friendly, defensive, aggressive or agonistic (sum of defensive and aggressive behaviour) behaviour was compared across the experimental groups against the relevant control group by means of Analysis of Variance (ANOVA) (one-factor).

[2] = system: dopaminergic neurons in the ventral tegmental area; assay: Spontaneous DA cell firing in the VTA of anaesthetised rats (extracellular single-cell recordings); settings: mean ± SEM
Experimental: Subjects. Male Wistar rats (Harlan, The Netherlands) weighing 270-340 g are used. The animals are housed under a 12-hr light/dark cycle under controlled conditions for regular in-door temperature (21±2° C.) and humidity (55±5%) with food and tap water available ad libitum.
Administration of compound. […] These i.v. doses match the s.c. dose range of 0-10 mg/kg.
Statistical analysis. Drug effects are assessed by statistical comparison of the mean firing rate calculated from the 2-3 min period immediately before the first drug administration (baseline) to the mean firing rate calculated from at least 60 s at the maximal drug effect. Data are analysed statistically by a one-way analysis of variance (ANOVA) followed by Student-Newman-Keuls post hoc test. A p-value less than 0.05 is considered significant.

[3] = 2 mg/kg s.c. 30 min before test
[4] = 10 mg/kg s.c. 30 min before test

In the case of `CCOC(=O)Nc1ccc(NCc2ccc(F)cc2)cc1N` [Compound 1, reference compound], the “Inhibition of baseline motility, ED50” value (baseline motility) is reported as 7.6 (1.3) mg/kg, the “% of time Aggressive behaviour” value [1, 3] is reported as 16.1 % of time and the “% of time Defensive behaviour” value [1, 3] is reported as 16.3 % of time. For the same molecule, the “% of time Friendly behaviour” value [1, 3] was 3.4 % of time, the “% of time Non-social behaviour” value [1, 3] was 64.2 % of time and the “% of time Agonistic behaviour” value [1, 3] was 32.4 % of time. For the same molecule, the “% of time Aggressive behaviour” value [1, 4] was 4.2*** % of time, the “% of time Defensive behaviour” value [1, 4] was 3.6*** % of time and the “% of time Friendly behaviour” value [1, 4] was 4.9* % of time. The “% of time Non-social behaviour” value [1, 4] was 87.3*** % of time, the “% of time Agonistic behaviour” value [1, 4] was 7.8*** % of time and the “Spontaneous DA cell firing rate in the VTA” value ([2]; cumulated dose 0.3 mg/kg i.v.) was 95.4 ± 5.0 (4) percentage of baseline firing rate. For the same molecule, the “Spontaneous DA cell firing rate in the VTA” value ([2]; cumulated dose 1.0 mg/kg i.v.) was 90.5 ± 4.6 (5) percentage of baseline firing rate, the “Spontaneous DA cell firing rate in the VTA” value ([2]; cumulated dose 2.0 mg/kg i.v.) was 81.1 ± 5.1 (5) percentage of baseline firing rate and the “Spontaneous DA cell firing rate in the VTA” value ([2]; cumulated dose 4.0 mg/kg i.v.) was 67.1 ± 3.7 (4) percentage of baseline firing rate. The “Spontaneous DA cell firing rate in the VTA” value ([2]; cumulated dose 6.0 mg/kg i.v.) was 60.6 ± 0.7 (2) percentage of baseline firing rate.
